Assays:
[1] = Binding of novel bisphosphonate conjugates on hydroxyapatite powder (UV spectra before/after treatment); conditions: pH 7.0
Protocol: To estimate the binding of NBC on hydroxyapatite (the mineral component of bone) UV spectra of NBC at pH7 were recorded before and after treatment with hydroxyapatite. […] The supernatant was separated and an absorption spectrum of the supernatant was recorded.

[2] = HPLC-analysis of stability of nucleotide-bisphosphonate conjugate in serum; assay type: in vitro ADME; conditions: mouse/human serum; Fig.3
Protocol: (§1) HPLC-analysis of hydrolytic stability of conjugate VI, Fig. 2, in buffer and in human serum was carried out under the following conditions: column Nucleosil C-18 (30-C18), 0-4% triethylammonium acetate (0.1 M, pH6.8); 20 min, flow rate -1 ml/min. […] The stability of the conjugate was decreased in mouse/human serum as it is evidenced from data on Fig.3. However, the conjugate is stable enough to be delivered to a skeleton in intact form.

[3] = HPLC-analysis of hydrolytic stability of nucleotide-bisphosphonate conjugate in buffer; assay type: physicochemical
Protocol: as §1

[4] = Biodistribution in rats of vitamin B6 - bisphosphonate conjugates in complex with 99mTc; assay type: in vivo; conditions: as complexing agent of the bone-scanning agent; general statement
Protocol: The probes were prepared with molar concentration of about 10^-3 molar at pH 6.5, with a molar ratio SnCl2 to a conjugate 1:10 and 1 m^cl/ml pertechnetate.
Male rats weighting […] were injected intravenously via the tail vein. The rats were sacrificed and dissected at selected times - 30 min., 60 min., and 120 min. The activity uptake in bone, blood, muscle, liver and spleen of each rat was measured. The results obtained indicate 40-45% of initial radioactivity injected was accumulated at bone skeleton after 60-90 min.

| % of bound compound [1] | % of nonbound compound [1] | stability of the conjugate in serum [2] | hydrolytic stability (stable for several hours) ([3]; buffer solution at pH 5-7, several hours) | uptake in bone [4] | Compound | hydrolytic stability of the P-O-P bond ([3]; incubation either at pH >8.0 or at pH<3.0) |
| --- | --- | --- | --- | --- | --- | --- |
| 69,66% | 30,34% | decreased | more than 97% | – | CC(O)(P(=O)(O)O)P(=O)(O)OP(=O)(O)OCC1OC(n2cc(F)c(=O)[nH]c2=O)C(O)C1O (stereo not shown) [VI, Anhydride of 5-fluorouridine-5'-monophosphoric acid and 1-hydroxyethylidene-1,1-bisphosphonic acid] | Hydrolytic cleavage of the conjugate P-O-P bond occurred |
| 100% | 0% | – | – | – | Cc1ncc(CO)c(CNC(P(=O)(O)O)P(=O)(O)O)c1O [(iv), 1 -(N-pyridoxyl amino) -methylen-1, 1 -bisphosphonic acid] | – |
| 100% | 0% | – | – | – | Cc1ncc(COP(=O)(O)O)c(CNC(P(=O)(O)O)P(=O)(O)O)c1O [(iii), 1 - (N-[5 '-phospho] -pyridoxylamino)-methylene-1,1-bisphosphonic acid] | – |
| 70,05% | – | – | – | – | O=c1[nH]c(=O)n(C2OC(COP(=O)(O)OP(=O)(O)CP(=O)(O)O)C(O)C2O)cc1F (stereo not shown) [III, Anhydride of 5-fluorouridine-5'-monophosphoric acid and methylenediphosphonic acid] | – |
| 87,26% | 12,74% | – | – | – | O=c1[nH]c(=O)n(COCCOCCOP(=O)(O)CP(=O)(O)O)cc1F [II, Anhydride of 1-([2-{hydroxyethoxy}ethoxy]methylene)-5-fluorouracil and methylenediphosphonic acid] | – |
| 100% | 0% | – | – | – | Cc1ncc(COP(=O)(O)O)c(CNCCC(O)(P(=O)(O)O)P(=O)(O)O)c1O [(i), 3 - (N-[5 '-phospho] -pyridoxylamino) -1-hydroxypropyliden-1,1-bisphosphonic acid] | – |
| 100% | 0% | – | – | high and rapid uptake in bone | Cc1ncc(CO)c(CNCCC(O)(P(=O)(O)O)P(=O)(O)O)c1O [(ii), 3-(N-pyridoxylamino) -1-hydroxypropyliden-1,1-bisphosphonic acid] | – |
| 88,68% | 11,32% | – | – | – | CC(O)(P(=O)(O)O)P(=O)(O)OP(=O)(O)OCC1OC(n2ccc(=O)[nH]c2=O)C(O)C1O (stereo not shown) [VII, Anhydride of uridine-5 '-monophosphoric acid and 1-hydroxyethylidene-1,1 diphosphonic acid] | – |
